# From patent US20220177476A1, “Crystal Forms of (S)-4-(8-amino-3-(1-(but-2-ynoyl)-pyrrolidin-2-yl)imidazo[1,5-a]pyrazin-1-yl)-n-(pyridin-2-yl)benzamide” (Acerta Pharma B.V., priority 2015, published 2022)
# Like-named read-outs stand apart in the source and are kept apart here.
# Key:
# Assay type in all cases: physicochemical
# [1] = Water content by Karl Fischer titration
# [2] = Aqueous solubility of Formula (1) free base as a function of pH
# Description: The aqueous solubility of Formula (1) free base was examined as a function of pH.
# [3] = logP by potentiometric (pH-metric) technique, octanol/water; conditions: 25° C., 0.15 M KCl
# Procedure: The logP of Formula (1) free base was determined using the potentiometric (pH-metric) technique. The sample was titrated in various ratios of octanol/water from pH 1.9-12.1 at concentrations of 1.1-0.5 mM at 25° C. in an ionic environment of 0.15 M KCl. The potentiometric data collected were used to calculate the logP of the neutral (2.03±0.01) and the cationic (−0.31±0.06) species.
# [4] = pKa by ultraviolet (UV) spectrometric titration; conditions: for pKa: aqueous solution
# Procedure: The pKa values for Formula (1) free base were determined and used to create the speciation plot shown in FIG. 47 to illustrate the species present as the Formula (1) passes through the gastrointestinal tract. The sample pKa values were determined using an ultraviolet (UV) spectrometric technique. The sample was initially titrated in a fast-UV triple titration between pH 2-12 at concentrations of 31-19 μM, under aqueous conditions. Three pKa values, with average values of ˜3.6, ˜5.8 and ˜12.0, were determined. The sample was subsequently titrated in six titrations, under aqueous conditions over a total range of pH 1.5-12.5 at concentrations of 30-18 μM.
# [5] = Aqueous solubility of salts after three hours equilibration without pH adjustment; conditions: thermodynamic from solid, water
# Procedure: Characterization of fumarate salt, maleate salt, phosphate salt and L-tartrate salt was conducted using ^1H NMR spectroscopy, TG-FTIR, DSC, dynamic vapor sorption, optical microscopy, high-performance liquid chromatography (HPLC) purity, laser diffraction, approximate bulk and tapped density, and aqueous solubility analytical techniques.
# [6] = six titrations, pH 1.5-12.5, 30-18 μM, aqueous
Compound,"water content (% found, experimental) [1] [%]","solubility ([2]; aqueous HCl solution, pH 1, simulated gastric fluid, thermodynamic from solid, HCl solution having a pH of about 1, read-out: solubility in HCl solution) [µg/mL]","solubility ([2]; aqueous buffer solution, pH 5, aqueous buffer, thermodynamic from solid, effective pH at the end of the test 5.0, read-out: Solubility) [µg/mL]","solubility ([2]; aqueous buffer solution, pH 7.3, aqueous buffer, thermodynamic from solid, effective pH at the end of the test 7.3, read-out: Solubility) [µg/mL]","solubility ([2]; aqueous buffer solution, pH 8.9, aqueous buffer, thermodynamic from solid, effective pH at the end of the test 8.9, read-out: Solubility) [µg/mL]","solubility ([2]; aqueous buffer solutions, aqueous buffer, thermodynamic from solid, pH 6.7 and greater, read-out: aqueous solubility, constant level) [µg/mL]",solubility ([2]; effective pH at the end of the test 6.7) [µg/mL],"aqueous solubility, constant level ([2]; pH 6.7 and greater)",logP of the neutral species [3],logP ([3]; read-out: logP of the cationic species),"pKa ([4]; free base, Table 9, read-out: pKa)","pKa ([4]; pH 1.5, six titrations, pH 1.5-12.5, 30-18 μM, aqueous, read-out: pKa, average value (third))","pKa ([4]; pH 2, fast-UV triple titration, pH 2-12, 31-19 μM, aqueous, read-out: pKa, average value (first))","pKa ([4]; pH 2, fast-UV triple titration, pH 2-12, 31-19 μM, aqueous, read-out: pKa, average value (second))","pKa ([4]; pH 2, fast-UV triple titration, pH 2-12, 31-19 μM, aqueous, read-out: pKa, average value (third))","pKa, average value (first) [4, 6]","pKa, average value (second) [4, 6]",solubility at 3 h [5] [µg/mL]
"CC#CC(=O)N1CCC[C@H]1c1nc(-c2ccc(C(=O)Nc3ccccn3)cc2)c2c(N)nccn12.O=S(=O)(O)O [sulfate salt, (S)-4-(8-amino-3-(1-(but-2-ynoyl)pyrrolidin-2-yl)imidazo[1,5-α]pyrazin-1-yl)-N-(pyridin-2-yl)benzamide sulfate]",10.6,,,,,,,,,,,,,,,,,
"CC#CC(=O)N1CCC[C@H]1c1nc(-c2ccc(C(=O)Nc3ccccn3)cc2)c2c(N)nccn12 [Formula (1), (S)-4-(8-amino-3-(1-(but-2-ynoyl)pyrrolidin-2-yl)imidazo[1,5-α]pyrazin-1-yl)-N-(pyridin-2-yl)benzamide]",,≥ 150000,690,49,51,~50,56,about 50 μg/mL,2.03±0.01,-0.31 ± 0.06,~5.7,12.12 ± 0.03,~3.6,~5.8,~12,3.54±0.01,5.77±0.01,< 1000
